# Experimental data taken from PubChem BioAssay (NCI).
# “And” between values parts separate entries of the source, which are not always exact repeats. Identical values can stand only once.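 Five compound concentrations were applied to cells in 96-well plates for 48 hours; endpoints were derived by simple linear interpolation of the resulting dose-response curve. GI50: concentration for 50% inhibition of growth. Definition used: TGI = concentration required for complete inhibition of growth.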
# What was measured:
# Experiment in all cases: NCI anticancer screen, dose series, 48 h
# SK-MEL-2 melanoma = system: SK-MEL-2 melanoma
# M14 melanoma = system: M14 melanoma
# HT29 colon = system: HT29 colon
# OVCAR-5 ovarian = system: OVCAR-5 ovarian
# MOLT-4 leukemia = system: MOLT-4 leukemia
# SK-OV-3 ovarian = system: SK-OV-3 ovarian
# K-562 leukemia = system: K-562 leukemia
# SF-268 CNS = system: SF-268 CNS
# UO-31 renal = system: UO-31 renal
# DU-145 prostate = system: DU-145 prostate
# HCC-2998 colon = system: HCC-2998 colon
# EKVX NSCLC = system: EKVX NSCLC
# MCF7 breast = system: MCF7 breast
# CAKI-1 renal = system: CAKI-1 renal
# HOP-62 NSCLC = system: HOP-62 NSCLC
# SF-295 CNS = system: SF-295 CNS
# NCI-H460 lung = system: NCI-H460 lung
# A498 renal = system: A498 renal
# SN12C renal = system: SN12C renal
# SK-MEL-5 melanoma = system: SK-MEL-5 melanoma
# HCT-116 colon = system: HCT-116 colon
# OVCAR-3 ovarian = system: OVCAR-3 ovarian
# HOP-92 NSCLC = system: HOP-92 NSCLC
# HS 578T breast = system: HS 578T breast
# LOX IMVI melanoma = system: LOX IMVI melanoma
# SF-539 CNS = system: SF-539 CNS
# NCI-H522 lung = system: NCI-H522 lung
# MDA-MB-435 = system: MDA-MB-435
# COLO 205 colon = system: COLO 205 colon
# NCI-H226 lung = system: NCI-H226 lung
# BT-549 breast = system: BT-549 breast
# SK-MEL-28 melanoma = system: SK-MEL-28 melanoma
# TK-10 renal = system: TK-10 renal
# KM12 colon = system: KM12 colon
# T-47D breast = system: T-47D breast
# ACHN renal = system: ACHN renal
# MDA-MB-231 breast = system: MDA-MB-231 breast
# HL-60(TB) leukemia = system: HL-60(TB) leukemia
# UACC-62 melanoma = system: UACC-62 melanoma
# CCRF-CEM leukemia = system: CCRF-CEM leukemia
# 786-0 renal = system: 786-0 renal
# NCI-H23 lung = system: NCI-H23 lung
# RXF 393 renal = system: RXF 393 renal
# A549 NSCLC = system: A549 NSCLC
# UACC-257 melanoma = system: UACC-257 melanoma
# NCI/ADR-RES ovarian = system: NCI/ADR-RES ovarian
# U251 CNS = system: U251 CNS
# HCT-15 colon = system: HCT-15 colon
# PC-3 prostate = system: PC-3 prostate
# OVCAR-4 ovarian = system: OVCAR-4 ovarian
# SNB-19 CNS = system: SNB-19 CNS
# IGROV1 ovarian = system: IGROV1 ovarian
# OVCAR-8 ovarian = system: OVCAR-8 ovarian
# SW-620 colon = system: SW-620 colon
# MALME-3M melanoma = system: MALME-3M melanoma
# SNB-75 CNS = system: SNB-75 CNS
# RPMI-8226 leukemia = system: RPMI-8226 leukemia
compound,measurement,setting,value
CC1=NN(C2=NS(=O)(=O)c3ccccc3N2C)C(=O)C1,TGI,SK-MEL-2 melanoma,> 100 µM
same,TGI,M14 melanoma,> 100 µM
same,TGI,HT29 colon,> 100 µM
same,TGI,OVCAR-5 ovarian,> 100 µM
same,TGI,MOLT-4 leukemia,> 100 µM
same,TGI,SK-OV-3 ovarian,> 100 µM
same,TGI,K-562 leukemia,> 100 µM
same,TGI,SF-268 CNS,> 100 µM
same,TGI,UO-31 renal,> 100 µM
same,TGI,DU-145 prostate,> 100 µM
same,TGI,HCC-2998 colon,> 100 µM
same,TGI,EKVX NSCLC,> 100 µM
same,TGI,MCF7 breast,> 100 µM
same,TGI,CAKI-1 renal,> 100 µM
same,TGI,HOP-62 NSCLC,> 100 µM
same,TGI,SF-295 CNS,> 100 µM
same,TGI,NCI-H460 lung,> 100 µM
same,TGI,A498 renal,> 100 µM
same,TGI,SN12C renal,> 100 µM
same,TGI,SK-MEL-5 melanoma,> 100 µM
same,TGI,HCT-116 colon,> 100 µM
same,TGI,OVCAR-3 ovarian,> 100 µM
same,TGI,HOP-92 NSCLC,> 100 µM
same,TGI,HS 578T breast,> 100 µM
same,TGI,LOX IMVI melanoma,> 100 µM
same,TGI,SF-539 CNS,> 100 µM
same,TGI,NCI-H522 lung,> 100 µM
same,TGI,MDA-MB-435,> 100 µM
same,TGI,COLO 205 colon,> 100 µM
same,TGI,NCI-H226 lung,> 100 µM
same,TGI,BT-549 breast,> 100 µM
same,TGI,SK-MEL-28 melanoma,> 100 µM
same,TGI,TK-10 renal,> 100 µM
same,TGI,KM12 colon,> 100 µM
same,TGI,T-47D breast,> 100 µM
same,TGI,ACHN renal,> 100 µM
same,TGI,MDA-MB-231 breast,> 100 µM
same,TGI,HL-60(TB) leukemia,> 100 µM
same,TGI,UACC-62 melanoma,> 100 µM
same,TGI,CCRF-CEM leukemia,> 100 µM
same,TGI,786-0 renal,> 100 µM
same,TGI,NCI-H23 lung,> 100 µM
same,TGI,RXF 393 renal,> 100 µM
same,TGI,A549 NSCLC,> 100 µM
same,TGI,UACC-257 melanoma,> 100 µM
same,TGI,NCI/ADR-RES ovarian,> 100 µM
same,TGI,U251 CNS,> 100 µM
same,TGI,HCT-15 colon,> 100 µM
same,TGI,PC-3 prostate,> 100 µM
same,TGI,OVCAR-4 ovarian,> 100 µM
same,TGI,SNB-19 CNS,> 100 µM
same,TGI,IGROV1 ovarian,> 100 µM
same,TGI,OVCAR-8 ovarian,> 100 µM
same,TGI,SW-620 colon,> 100 µM
CCN(CC)CCNc1ccc(C)c2sc3ccccc3c(=O)c12 (tested in a mixture with another compound),TGI,SK-MEL-2 melanoma,8.28 µM
same,TGI,M14 melanoma,3.05 µM and 3.14 µM
same,TGI,HT29 colon,3.79 µM
same,GI50,OVCAR-5 ovarian,1.8 µM and 2.35 µM
same,TGI,OVCAR-5 ovarian,3.98 µM and 5.87 µM
same,GI50,MOLT-4 leukemia,2.55 µM and 2.57 µM
same,TGI,MOLT-4 leukemia,6.33 µM and 6.48 µM
same,GI50,SK-OV-3 ovarian,2.11 µM and 2.91 µM
same,TGI,SK-OV-3 ovarian,5.63 µM and 9.21 µM
same,TGI,K-562 leukemia,3.92 µM and 4.27 µM
same,GI50,SF-268 CNS,3.91 µM and 3.3 µM
same,TGI,SF-268 CNS,14.8 µM and 12.5 µM
same,TGI,UO-31 renal,3.79 µM
same,GI50,DU-145 prostate,2.58 µM and 3.08 µM
same,TGI,DU-145 prostate,9.14 µM and 8.92 µM
same,GI50,HCC-2998 colon,1.55 µM and 1.94 µM
same,TGI,HCC-2998 colon,3.03 µM and 4.51 µM
same,GI50,EKVX NSCLC,5.1 µM and 4.96 µM
same,TGI,EKVX NSCLC,19.7 µM and 19.5 µM
same,GI50,MCF7 breast,1.81 µM and 1.75 µM
same,TGI,MCF7 breast,3.85 µM and 3.73 µM
same,GI50,CAKI-1 renal,1.38 µM and 0.694 µM
same,TGI,CAKI-1 renal,4.5 µM and 6.47 µM
same,GI50,HOP-62 NSCLC,1.54 µM and 2.07 µM
same,TGI,HOP-62 NSCLC,3.12 µM and 5.88 µM
same,TGI,SF-295 CNS,5.3 µM and 5.37 µM
same,TGI,NCI-H460 lung,3.81 µM and 3.58 µM
same,GI50,A498 renal,1.83 µM
same,TGI,A498 renal,4.11 µM and 7.09 µM
same,GI50,SN12C renal,4.38 µM
same,TGI,SN12C renal,12.7 µM and 18 µM
same,GI50,SK-MEL-5 melanoma,1.54 µM and 1.69 µM
same,TGI,SK-MEL-5 melanoma,2.98 µM and 3.09 µM
same,GI50,HCT-116 colon,1.5 µM
same,TGI,HCT-116 colon,2.9 µM and 3.62 µM
same,GI50,OVCAR-3 ovarian,2.43 µM
same,TGI,OVCAR-3 ovarian,6.92 µM and 7.23 µM
same,GI50,HOP-92 NSCLC,1.34 µM and 1.76 µM
same,TGI,HOP-92 NSCLC,6.77 µM and 8.86 µM
same,GI50,MALME-3M melanoma,1.65 µM and 1.71 µM
same,TGI,MALME-3M melanoma,3.46 µM and 3.45 µM
same,GI50,HS 578T breast,1.91 µM and 1.78 µM
same,TGI,HS 578T breast,4.75 µM and 5 µM
same,GI50,LOX IMVI melanoma,1.86 µM and 1.7 µM
same,TGI,LOX IMVI melanoma,3.88 µM and 3.81 µM
same,TGI,SNB-75 CNS,4.6 µM and 6.21 µM
same,GI50,SF-539 CNS,1.92 µM and 2.25 µM
same,TGI,SF-539 CNS,4.06 µM and 5.45 µM
same,GI50,NCI-H522 lung,3.34 µM
same,TGI,NCI-H522 lung,13.3 µM
same,TGI,MDA-MB-435,4.13 µM and 4.21 µM
same,TGI,COLO 205 colon,3 µM and 3.1 µM
same,GI50,NCI-H226 lung,1.62 µM and 2.27 µM
same,TGI,NCI-H226 lung,3.25 µM and 5.09 µM
same,GI50,BT-549 breast,6.4 µM
same,TGI,BT-549 breast,16.3 µM and 21.4 µM
same,TGI,SK-MEL-28 melanoma,3.3 µM and 3.27 µM
same,GI50,TK-10 renal,2.73 µM
same,TGI,TK-10 renal,5.64 µM and 12.2 µM
same,TGI,KM12 colon,9.82 µM and 11.6 µM
same,GI50,T-47D breast,1.75 µM and 2.29 µM
same,TGI,T-47D breast,4.64 µM and 7.22 µM
same,GI50,ACHN renal,2.34 µM and 2.2 µM
same,TGI,ACHN renal,5.47 µM and 5.97 µM
same,GI50,MDA-MB-231 breast,1.72 µM and 1.83 µM
same,TGI,MDA-MB-231 breast,3.56 µM and 3.98 µM
same,GI50,HL-60(TB) leukemia,2.41 µM
same,TGI,HL-60(TB) leukemia,3.72 µM and 7.76 µM
same,GI50,UACC-62 melanoma,1.08 µM
same,TGI,UACC-62 melanoma,2.49 µM and 3.79 µM
same,GI50,CCRF-CEM leukemia,2.84 µM and 3.05 µM
same,TGI,CCRF-CEM leukemia,8.82 µM and 10.6 µM
same,GI50,786-0 renal,1.79 µM
same,TGI,786-0 renal,4.83 µM and 11.4 µM
same,GI50,NCI-H23 lung,2.32 µM
same,TGI,NCI-H23 lung,6.01 µM and 11.4 µM
same,TGI,RXF 393 renal,5.16 µM
same,GI50,A549 NSCLC,1.63 µM
same,TGI,A549 NSCLC,3.24 µM and 8.53 µM
same,GI50,UACC-257 melanoma,2.31 µM
same,TGI,UACC-257 melanoma,4.8 µM
same,GI50,NCI/ADR-RES ovarian,3.21 µM and 3.19 µM
same,TGI,NCI/ADR-RES ovarian,12.2 µM and 13.5 µM
same,TGI,U251 CNS,6.92 µM and 8.17 µM
same,TGI,HCT-15 colon,11.1 µM and 9.1 µM
same,GI50,PC-3 prostate,2.77 µM
same,TGI,PC-3 prostate,6.63 µM and 12.4 µM
same,GI50,OVCAR-4 ovarian,3.91 µM
same,TGI,OVCAR-4 ovarian,13.6 µM and 17.3 µM
same,GI50,SNB-19 CNS,3.95 µM
same,TGI,SNB-19 CNS,11.4 µM and 15.7 µM
same,TGI,RPMI-8226 leukemia,4.49 µM and 4.35 µM
same,GI50,IGROV1 ovarian,1.54 µM and 2.75 µM
same,TGI,IGROV1 ovarian,3.1 µM and 9.38 µM
same,GI50,OVCAR-8 ovarian,6.63 µM
same,TGI,OVCAR-8 ovarian,76.9 µM
same,TGI,SW-620 colon,3.46 µM and 3.72 µM
